Laboratory results taken from ChEMBL document CHEMBL2073765, “Disrupted bile acid homeostasis reveals an unexpected interaction among nuclear hormone receptors, transporters, and cytochrome P450” (J Biol Chem, 2001).

Molecular target: Bile salt export pump (Homo sapiens, UniProt O95342)
Test: TP_TRANSPORTER: Western in vitro, primary human hepatocyte
Type: functional, cell-based
Settings: hepatocytes

Bile salt export pump, sequence (O95342 whole entry): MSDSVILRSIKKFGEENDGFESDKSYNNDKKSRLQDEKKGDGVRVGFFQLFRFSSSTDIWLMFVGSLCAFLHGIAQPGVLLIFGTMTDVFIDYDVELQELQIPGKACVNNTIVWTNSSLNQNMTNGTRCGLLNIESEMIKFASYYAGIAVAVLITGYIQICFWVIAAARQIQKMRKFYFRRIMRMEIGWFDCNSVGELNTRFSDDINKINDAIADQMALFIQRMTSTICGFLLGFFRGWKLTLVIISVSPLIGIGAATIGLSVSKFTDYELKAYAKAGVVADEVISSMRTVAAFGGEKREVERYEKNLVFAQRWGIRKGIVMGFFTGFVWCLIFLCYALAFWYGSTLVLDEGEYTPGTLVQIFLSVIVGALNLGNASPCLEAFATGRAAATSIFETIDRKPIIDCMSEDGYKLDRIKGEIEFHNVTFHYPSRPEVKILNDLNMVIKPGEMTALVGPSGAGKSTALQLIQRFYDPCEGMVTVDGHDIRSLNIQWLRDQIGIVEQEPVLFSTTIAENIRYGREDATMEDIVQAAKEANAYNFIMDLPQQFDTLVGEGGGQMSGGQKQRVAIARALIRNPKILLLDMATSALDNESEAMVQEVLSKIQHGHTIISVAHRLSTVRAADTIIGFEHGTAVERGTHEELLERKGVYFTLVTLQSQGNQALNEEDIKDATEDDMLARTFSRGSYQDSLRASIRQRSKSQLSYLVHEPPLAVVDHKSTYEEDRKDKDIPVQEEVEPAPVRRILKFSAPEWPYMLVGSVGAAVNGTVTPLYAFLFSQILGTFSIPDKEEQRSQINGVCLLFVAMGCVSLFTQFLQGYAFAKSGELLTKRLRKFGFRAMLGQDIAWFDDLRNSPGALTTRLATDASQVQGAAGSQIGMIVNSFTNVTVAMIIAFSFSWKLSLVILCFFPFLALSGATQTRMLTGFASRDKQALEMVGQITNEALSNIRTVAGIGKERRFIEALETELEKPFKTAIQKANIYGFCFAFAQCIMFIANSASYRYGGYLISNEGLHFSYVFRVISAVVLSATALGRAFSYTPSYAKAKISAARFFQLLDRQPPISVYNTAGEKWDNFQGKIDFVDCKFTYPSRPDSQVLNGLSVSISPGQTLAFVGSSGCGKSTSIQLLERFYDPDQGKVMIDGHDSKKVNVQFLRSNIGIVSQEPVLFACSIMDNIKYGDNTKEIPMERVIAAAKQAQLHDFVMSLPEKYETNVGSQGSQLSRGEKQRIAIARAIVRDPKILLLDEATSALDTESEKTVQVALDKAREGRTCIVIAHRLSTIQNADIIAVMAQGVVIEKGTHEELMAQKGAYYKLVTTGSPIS

Compound | Activity
C[C@H](CCC(=O)O)[C@H]1CC[C@H]2[C@@H]3[C@H](O)C[C@@H]4C[C@H](O)CC[C@]4(C)[C@H]3CC[C@]12C [CHENODIOL] | inducer [+]
C[C@H](CCC(=O)O)[C@H]1CC[C@H]2[C@@H]3CC[C@@H]4C[C@H](O)CC[C@]4(C)[C@H]3C[C@H](O)[C@]12C [DEOXYCHOLIC ACID] | inducer [+]
